According to patent US12448372B2, “Class of triaromatic compounds targeting bifunctional phosphorylation site of STAT3 and applications thereof” (SHANGHAI YUYAO BIOTECH LTD., priority 2019, dated 2025):

Key:
STAT3 protein = STAT3 protein (Homo sapiens, UniProt P40763); assay: Binding activity to STAT3 protein by microscale thermophoresis (MST); details: purified STAT3 recombinant protein
From the text: (1) Determination of Binding Activities of Compounds to STAT3 Protein by Microscale Thermophoresis (MST) Method
The microscale thermophoresis (MST) technique is a simple, rapid, and accurate method for quantifying biomolecular interactions. It can measure the movement of molecules in a microscopic temperature gradient field, as well as detect changes of molecular hydration shell, charge and size. When the Nanotemper microscale thermophoresis instrument locally heated by a infrared laser, molecules will move in a directional manner, then the molecular distribution ratio in the temperature gradient field are analyzed by a fluorescence to detect whether a small molecule compound binds to a target protein. The experimental operation is as follows: firstly, compounds to be tested are diluted in a gradient using MST test buffer, total 16 concentrations being configured; subsequently, the purified STAT3 recombinant protein is labeled using the HIS tag labeling kit, and the final concentration of the labeled protein is 100-200 nM; the labeled STAT3 proteins are well mixed with the diluted compounds and incubated and protected from light for 30 minutes; finally the samples were loaded by capillary tube and detected on the instrument. The binding constants (K^D) of small molecules to STAT3 protein were analyzed by Mo. analysis software.

Capan-2 = assay: Cell proliferation by MTS method, Capan-2; assay type: cell-based; details: Homo sapiens; Table 1, Capan-2; read-out: Tumour cell proliferative activity/IC50(nM) Pancreatic Cancer Capan-2
From the text: (§1) (2) Detection of Cell Proliferation by MTS Method
(§2) The MTS assay is a method for indirectly determining the number of living cells via colourimetric method. MTS is a newly synthesised tetrazole compound that reflects cell viability, which can be reduced by succinate dehydrogenase in the mitochondria of living cells to an orange-coloured formazan with an absorbance of the reduced product measured at 490 nm being in proportion to the number of living cells, thus reflecting the cell viability. This assay can be used to evaluate the effect of the compound on the proliferation of pancreatic cancer cells, thereby determining the inhibitory effect of the compound on the proliferation of pancreatic cancer cells and to calculate the IC^50. Each cells were inoculated uniformly into a 96-well plate at a density of 1-20×10^3 cells/well, 100 μL per well, and placed in a constant temperature incubator until the cells adhered to the wall. The control group was added with the corresponding medium and the experimental groups were given different concentrations of the compound prepared by the examples of the present invention, and the cells were taken out 24-96 h after administration for observing the cell state under a microscope. Under light-proof conditions, MTS was added and well mixed, the mixture was placed in a constant temperature incubator at 37° C., and the light absorption value were measured using an enzyme marker at 490 nm and the experiment was repeated for three times, IC50 was calculated with GraphPad5 Prism software.

MKN45 = assay: Cell proliferation by MTS method, MKN45; assay type: cell-based; details: Homo sapiens, MKN-45; Table 1, MKN45; read-out: Tumour cell proliferative activity/IC50(nM) gastric Cancer MKN45
From the text: as §1, §2

Huh7 = assay: Cell proliferation by MTS method, Huh7; assay type: cell-based; details: Homo sapiens, Huh-7; Table 1, Huh7; read-out: Tumour cell proliferative activity/IC50(nM) Liver Cancer Huh7
From the text: as §1, §2

HCC827 = assay: Cell proliferation by MTS method, HCC827; assay type: cell-based; details: Homo sapiens; Table 1, HCC827; read-out: Tumour cell proliferative activity/IC50(nM) Lung Cancer HCC827
From the text: as §1, §2

Sequence of STAT3 protein (P40763 whole entry): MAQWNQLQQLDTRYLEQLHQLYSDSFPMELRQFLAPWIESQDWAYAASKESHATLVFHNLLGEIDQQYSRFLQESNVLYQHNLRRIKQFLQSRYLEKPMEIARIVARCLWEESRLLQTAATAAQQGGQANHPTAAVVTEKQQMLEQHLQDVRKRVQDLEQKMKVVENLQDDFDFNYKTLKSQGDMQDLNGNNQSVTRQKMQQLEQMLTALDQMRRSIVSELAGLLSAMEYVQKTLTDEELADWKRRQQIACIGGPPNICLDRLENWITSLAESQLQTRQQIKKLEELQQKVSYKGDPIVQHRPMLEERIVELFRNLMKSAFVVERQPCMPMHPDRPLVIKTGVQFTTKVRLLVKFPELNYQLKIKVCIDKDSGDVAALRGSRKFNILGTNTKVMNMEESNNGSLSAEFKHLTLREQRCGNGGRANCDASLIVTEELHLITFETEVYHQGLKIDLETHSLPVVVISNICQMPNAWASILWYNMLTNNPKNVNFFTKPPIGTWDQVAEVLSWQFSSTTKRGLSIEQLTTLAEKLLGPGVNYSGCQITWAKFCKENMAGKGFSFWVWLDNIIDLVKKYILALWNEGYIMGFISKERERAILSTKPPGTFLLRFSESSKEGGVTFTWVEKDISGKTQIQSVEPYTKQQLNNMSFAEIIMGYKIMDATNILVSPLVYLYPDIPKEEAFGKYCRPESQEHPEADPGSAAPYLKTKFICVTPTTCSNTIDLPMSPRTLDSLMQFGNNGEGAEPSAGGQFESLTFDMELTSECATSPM

| SMILES | Kd (STAT3 protein) [nM] | IC50 (Capan-2) [nM] | IC50 (MKN45) [nM] | IC50 (Huh7) [nM] | IC50 (HCC827) [nM] |
| --- | --- | --- | --- | --- | --- |
| CCCn1c(C(=O)N2CCN(Cc3ccc(OCC(F)(F)F)cc3)CC2)cc2ccc(Oc3cnc(-c4nc(-c5ccc(C(F)(F)F)cc5)no4)cn3)cc21 [Example 16, (1-propyl-6-((5-(3-(4-(trifluoromethyl)phenyl)-1,2,4-oxadiazol-5-yl)pyrazin-2-yl)oxy)-1H-indol-2-yl)(4-(4-(2,2,2-trifluoromethoxy)benzyl)piperazin-1-yl)methanone] | < 100 | < 100 | < 100 | < 100 | < 100 |
| C=CCn1c(C(=O)N2CCN(Cc3ccc(OCC(F)(F)F)cc3)CC2)cc2ccc(Oc3cnc(-c4nc(-c5ccc(C(F)(F)F)cc5)no4)cn3)cc21 [Example 17, (1-allyl-6-((5-(3-(4-(trifluoromethyl)phenyl)-1,2,4-oxadiazol-5-yl)pyrazin-2-yl)oxy)-1H-indol-2-yl) (4-(4-(2,2,2-trifluoromethoxy)benzyl)piperazin-1-yl)methanone] | < 10 | < 10 | < 10 | < 10 | < 10 |
| COCCn1c(C(=O)N2CCN(Cc3ccc(OCC(F)(F)F)cc3)CC2)cc2ccc(Oc3cnc(-c4nc(-c5ccc(C(F)(F)F)cc5)no4)cn3)cc21 [Example 18, (1-(2-methoxyethyl)-6-((5-(3-(4-(trifluoromethyl)phenyl)-1,2,4-oxadiazol-5-yl)pyrazin-2-yl)oxy)-1H-indol-2-yl) (4-(4-(2,2,2-trifluoroethoxy)benzyl)piperazin-1-yl)methanone] | < 100 | < 100 | < 100 | < 100 | < 100 |
| CC(C)C(=O)n1c(C(=O)N2CCN(Cc3ccc(OCC(F)(F)F)cc3)CC2)cc2ccc(Oc3cnc(-c4nc(-c5ccc(C(F)(F)F)cc5)no4)cn3)cc21 [Example 19] | < 10 | < 10 | < 10 | < 10 | < 10 |
| COC(=O)Cn1c(C(=O)N2CCN(Cc3ccc(OCC(F)(F)F)cc3)CC2)cc2ccc(Oc3cnc(-c4nc(-c5ccc(C(F)(F)F)cc5)no4)cn3)cc21 [Example 20] | < 1000 | < 1000 | < 1000 | < 1000 | < 1000 |
| CCOC(=O)Cn1c(C(=O)N2CCN(Cc3ccc(OCC(F)(F)F)cc3)CC2)cc2ccc(Oc3cnc(-c4nc(-c5ccc(C(F)(F)F)cc5)no4)cn3)cc21 [Example 21] | < 100 | < 1000 | < 1000 | < 1000 | < 1000 |
| O=C(c1cc2ccc(Oc3cnc(-c4nc(-c5ccc(C(F)(F)F)cc5)no4)cn3)cc2n1Cc1ccccc1)N1CCN(Cc2ccc(OCC(F)(F)F)cc2)CC1 [Example 22] | < 100 | < 1000 | < 1000 | < 1000 | < 1000 |
| Cn1c(C(=O)N2CCN(Cc3ccccc3)CC2)cc2ccc(Oc3cnc(-c4nc(-c5ccc(C(F)(F)F)cc5)no4)cn3)cc21 [Example 23, (4-benzylpiperazin-1-yl)(1-methyl-6-((5-(3-(4-(trifluoromethyl)phenyl)-1,2,4-oxadiazol-5-yl)pyrazin-2-yl)oxy)-1H-indol-2-yl)methanone] | < 100 | < 1000 | < 1000 | < 1000 | < 1000 |
| Cc1cccc(CN2CCN(C(=O)c3cc4ccc(Oc5cnc(-c6nc(-c7ccc(C(F)(F)F)cc7)no6)cn5)cc4n3C)CC2)c1 [Example 24, (1-methyl-6-((5-(3-(4-(trifluoromethyl)phenyl)-1,2,4-oxadiazol-5-yl)pyrazin-2-yl)oxy)-1H-indol-2-yl) (4-(3-methylbenzyl)piperazin-1-yl)methanone] | < 100 | < 1000 | < 1000 | < 1000 | < 1000 |
| Cc1ccc(CN2CCN(C(=O)c3cc4ccc(Oc5cnc(-c6nc(-c7ccc(C(F)(F)F)cc7)no6)cn5)cc4n3C)CC2)cc1 [Example 25, (1-methyl-6-((5-(3-(4-(trifluoromethyl)phenyl)-1,2,4-oxadiazol-5-yl)pyrazin-2-yl)oxy)-1H-indol-2-yl) (4-(4-methylbenzyl)piperazin-1-yl)methanone] | < 100 | < 100 | < 100 | < 100 | < 100 |
| Cn1c(C(=O)N2CCN(Cc3ccc(F)cc3)CC2)cc2ccc(Oc3cnc(-c4nc(-c5ccc(C(F)(F)F)cc5)no4)cn3)cc21 [Example 26, (4-(4-fluorobenzyl)piperazin-1-yl)(1-methyl-6-((5-(3-(4-(trifluoromethyl)phenyl)-1,2,4-oxadiazol-5-yl)pyrazin-2-yl)oxy)-1H-indol-2-yl)methanone] | < 1000 | < 1000 | < 1000 | < 1000 | < 1000 |
| Cn1c(C(=O)N2CCN(Cc3ccc(Cl)cc3)CC2)cc2ccc(Oc3cnc(-c4nc(-c5ccc(C(F)(F)F)cc5)no4)cn3)cc21 [Example 27, (4-(4-chlorobenzyl)piperazin-1-yl)(1-methyl-6-((5-(3-(4-(trifluoromethyl)phenyl)-1,2,4-oxadiazol-5-yl)pyrazin-2-yl)oxy)-1H-indol-2-yl)methanone] | < 100 | < 100 | < 100 | < 100 | < 100 |
| Cn1c(C(=O)N2CCN(Cc3ccc(Br)cc3)CC2)cc2ccc(Oc3cnc(-c4nc(-c5ccc(C(F)(F)F)cc5)no4)cn3)cc21 [Example 28, (4-(4-bromobenzyl)piperazin-1-yl)(1-methyl-6-((5-(3-(4-(trifluoromethyl)phenyl)-1,2,4-oxadiazol-5-yl)pyrazin-2-yl)oxy)-1H-indol-2-yl)methanone] | < 100 | < 100 | < 100 | < 100 | < 100 |
| Cn1c(C(=O)N2CCN(Cc3cccc(C(F)(F)F)c3)CC2)cc2ccc(Oc3cnc(-c4nc(-c5ccc(C(F)(F)F)cc5)no4)cn3)cc21 [Example 29, (1-methyl-6-((5-(3-(4-(trifluoromethyl)phenyl)-1,2,4-oxadiazol-5-yl)pyrazin-2-yl)oxy)-1H-indol-2-yl)(4-(3-(trifluoromethyl)benzyl)piperazin-1-yl)methanone] | < 1000 | < 1000 | < 1000 | < 1000 | < 1000 |
| Cn1c(C(=O)N2CCN(Cc3ccc(C(F)(F)F)cc3)CC2)cc2ccc(Oc3cnc(-c4nc(-c5ccc(C(F)(F)F)cc5)no4)cn3)cc21 [Example 30, (1-methyl-6-((5-(3-(4-(trifluoromethyl)phenyl)-1,2,4-oxadiazol-5-yl)pyrazin-2-yl)oxy)-1H-indol-2-yl)(4-(4-(trifluoromethyl)benzyl)piperazin-1-yl)methanone] | < 1000 | < 1000 | < 1000 | < 1000 | < 1000 |
| COc1ccc(CN2CCN(C(=O)c3cc4ccc(Oc5cnc(-c6nc(-c7ccc(C(F)(F)F)cc7)no6)cn5)cc4n3C)CC2)cc1 [Example 31, (4-(4-methoxybenzyl)piperazin-1-yl)(1-methyl-6-((5-(3-(4-(trifluoromethyl)phenyl)-1,2,4-oxadiazol-5-yl)pyrazin-2-yl)oxy)-1H-indol-2-yl)methanone] | < 100 | < 100 | < 100 | < 100 | < 100 |
